Among the test systems are OVCAR-4 ovarian; SF-268 CNS; SNB-75 CNS; M14 melanoma; MOLT-4 leukemia; SN12C renal; HT29 colon; SK-MEL-5 melanoma; HCT-15 colon; UACC-257 melanoma.
Holding throughout (assay): NCI-60 cell line screen, 48 h

Where “and” joins values, the source holds several entries; their conditions need not be identical. Equal entries are not always repeated.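 Briefly, cells in 96-well plates were exposed to five compound concentrations for 48 h, and endpoints were estimated by linear interpolation. GI50 = concentration required for 50% inhibition of growth. TGI marks complete inhibition of growth.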

For `[N-]=[N+]=N/C1=C/CCCCC(=O)C1`, the TGI in the test on OVCAR-4 ovarian, in the test with SF-268 CNS, in the test with SNB-75 CNS, with M14 melanoma, with MOLT-4 leukemia and in the test with SN12C renal was above 100 µM in each case. Moreover, the TGI in the test on HT29 colon, in the test with SK-MEL-5 melanoma, in the test on HCT-15 colon and in the test with UACC-257 melanoma was above 100 µM in each case.
On to `O=c1[nH]c2ccc(O)cc2o1`, for which the TGI in the test with OVCAR-4 ovarian, with SF-268 CNS, in the test with SNB-75 CNS, in the test with M14 melanoma, in the test with MOLT-4 leukemia and with SN12C renal was above 100 µM each time. Moreover, the TGI in the test with HT29 colon, with SK-MEL-5 melanoma, in the test on HCT-15 colon and in the test with UACC-257 melanoma was above 100 µM in each case.
`COc1ccc(-c2nnc(N3CCN(C(=O)CN4CCN(c5ccccc5)CC4)CC3)nc2-c2ccc(OC)cc2)cc1`: the GI50 was 6.36 µM with OVCAR-4 ovarian; 83.4 µM in the test on SF-268 CNS; 14.4 µM with SNB-75 CNS; 4.84 µM with M14 melanoma; 2.04 µM in the test with MOLT-4 leukemia; 2.85 µM in the test with SN12C renal. For the same compound, the GI50 in the test with SK-MEL-5 melanoma is 2.99 µM; in the test with HCT-15 colon, 3.13 µM; with UACC-257 melanoma it was 6.17 µM. Also, the TGI is above 100 µM in the test on OVCAR-4 ovarian; above 100 µM with SF-268 CNS; 48.7 µM with SNB-75 CNS; above 100 µM in the test with M14 melanoma; 6.64 µM in the test on MOLT-4 leukemia; above 100 µM in the test with SN12C renal. The TGI in the test with SK-MEL-5 melanoma, in the test with HCT-15 colon and with UACC-257 melanoma was above 100 µM each time.
Turning to `COc1ccc(C(O)(CCC(C)C)C(CN2CCOCC2)c2ccc(Cl)cc2)cc1` (stereo unspecified), the GI50 in the test on OVCAR-4 ovarian is 12.1 µM; in the test on SF-268 CNS, 14 µM; with SNB-75 CNS it was 13 µM; in the test on M14 melanoma, 13.9 µM; with MOLT-4 leukemia, 9.83 µM; in the test on SN12C renal, 13.4 µM. Besides, the GI50 is 4.41 µM in the test with HT29 colon, 13.8 µM with SK-MEL-5 melanoma, 10.3 µM with HCT-15 colon and 13.4 µM in the test on UACC-257 melanoma. Also, the TGI with OVCAR-4 ovarian was found to be 27.4 µM; with SF-268 CNS, 29.3 µM; in the test on SNB-75 CNS, 35.2 µM; in the test on M14 melanoma it was 33.2 µM; in the test with MOLT-4 leukemia it was 33.1 µM; with SN12C renal it was 31.2 µM. For the same compound, the TGI amounted to 20.1 µM in the test on HT29 colon, 30.9 µM with SK-MEL-5 melanoma, 24.1 µM with HCT-15 colon and 33 µM in the test on UACC-257 melanoma.
On to `C/C(=N\NC(=S)N1CCCCCC1)c1ccccn1`, for which the GI50 in the test on OVCAR-4 ovarian was below 0.0412 µM; with SNB-75 CNS, 0.277 µM; in the test with M14 melanoma it was 0.0103 µM; with SN12C renal it was 0.0246 µM; in the test with SK-MEL-5 melanoma it was 0.0209 µM; in the test with HCT-15 colon it was 0.0497 µM. In addition, the TGI with OVCAR-4 ovarian is 2.52 µM and 3.25 µM; with SF-268 CNS, 4.19 µM; in the test with SNB-75 CNS it was 1.18 µM and 2.54 µM; with M14 melanoma it was 1.56 µM and 0.74 µM; in the test with MOLT-4 leukemia it was 3.46 µM and > 31.9 µM; in the test on SN12C renal, 4.31 µM and 5.6 µM. Further, the TGI is 2.52 µM and 10.6 µM in the test on HT29 colon; 1.09 µM and 0.741 µM in the test on SK-MEL-5 melanoma; 1.99 µM and 4.43 µM in the test on HCT-15 colon; 0.83 µM and 0.969 µM in the test with UACC-257 melanoma.
Turning to `CCN(CC)CCSc1c2ccccc2nc2c(OC)ccc(OC)c12`, the TGI in the test with OVCAR-4 ovarian was above 20 µM; in the test on SF-268 CNS it was 26.1 µM; in the test with SNB-75 CNS, above 70 µM; in the test on M14 melanoma, 15.4 µM; in the test with MOLT-4 leukemia, 3.84 µM; in the test with SN12C renal, above 39.3 µM. The results for the TGI with HT29 colon, in the test with SK-MEL-5 melanoma and in the test with UACC-257 melanoma were 23.1 µM, 16.5 µM and 16.5 µM, respectively.
As to `CCCCCCCN=C(N)c1ccc(N2CCN(c3ccc(C(N)=NCCCCCCC)cc3)CC2)cc1`, the GI50 was 1.05 µM with OVCAR-4 ovarian; 2.75 µM in the test on SNB-75 CNS; 7.29 µM in the test with M14 melanoma; 2.71 µM with MOLT-4 leukemia; 1.08 µM with SN12C renal; 2.98 µM with HT29 colon. The GI50 was 0.45 µM in the test on HCT-15 colon and 1.24 µM in the test on UACC-257 melanoma. Moreover, the TGI is above 13.2 µM in the test with OVCAR-4 ovarian; 0.317 µM in the test on SF-268 CNS; 7.67 µM in the test on SNB-75 CNS; above 100 µM in the test on M14 melanoma; above 100 µM with MOLT-4 leukemia; 14.7 µM in the test on SN12C renal. Further, the TGI was above 100 µM with HT29 colon, 0.0141 µM in the test on SK-MEL-5 melanoma, above 61.9 µM with HCT-15 colon and 4.39 µM with UACC-257 melanoma.
With `CC(C)OC(=O)[C@H](C)NP(=O)(OC[C@H]1O[C@@H](n2ccc(=O)[nH]c2=O)[C@](C)(F)[C@@H]1O)Oc1ccccc1` (stereo partly specified), the GI50 with OVCAR-4 ovarian, in the test with SF-268 CNS, in the test with SNB-75 CNS, in the test on M14 melanoma, in the test with MOLT-4 leukemia and in the test on SN12C renal was above 100 µM in each case. The GI50 in the test with HT29 colon, in the test with SK-MEL-5 melanoma, in the test with HCT-15 colon and in the test on UACC-257 melanoma was above 100 µM in each case. Besides, the TGI in the test on OVCAR-4 ovarian, with SF-268 CNS, in the test on SNB-75 CNS, in the test with M14 melanoma, with MOLT-4 leukemia and with SN12C renal was above 100 µM each time. The TGI with HT29 colon, in the test on SK-MEL-5 melanoma, in the test with HCT-15 colon and in the test on UACC-257 melanoma was above 100 µM throughout.
`COc1ccc(C2=C(c3ccc(OC)cc3)C(=O)N3CCCC3C2)cc1` (stereo unspecified): the GI50 with OVCAR-4 ovarian is 15.5 µM; in the test with SF-268 CNS, 16.4 µM; with SNB-75 CNS, 15.6 µM; in the test with M14 melanoma, 28 µM; in the test with MOLT-4 leukemia, 15.5 µM; with SN12C renal, 22.5 µM. The GI50 in the test with HT29 colon was 6.19 µM; in the test with SK-MEL-5 melanoma, 10.1 µM; in the test with HCT-15 colon it was 0.733 µM; in the test with UACC-257 melanoma it was 32.9 µM. Further, the TGI with OVCAR-4 ovarian is above 100 µM; with SF-268 CNS it was above 100 µM; with SNB-75 CNS, above 72.7 µM; in the test with M14 melanoma, above 100 µM; in the test with MOLT-4 leukemia it was above 100 µM; in the test on SN12C renal, above 100 µM. For the same compound, the TGI in the test with HT29 colon was above 100 µM; in the test with SK-MEL-5 melanoma it was 84.3 µM; in the test on HCT-15 colon, above 55.7 µM; in the test with UACC-257 melanoma it was above 100 µM.

The record behind these values is PubChem BioAssay (NCI).
